Oligonucleotides are written 5' to 3', each unit as a sugar letter and its base; * is a phosphorothioate linkage, no mark a phosphodiester; rarer units and linkages stand in square brackets, end groups in braces. Plain capitals give the bases only. d = 2'-deoxy (DNA)
How the values were obtained:
MCMV = MCMV replication in NIH 3T3 mouse fibroblast cells (TCID50); assay type: cell-based, murine CMV; conditions: NIH 3T3, MOI=0.1, 4 days post infection
Method: (§1) FIG. 14: C-DOTs can be engineered to interfere with a broad range of species-specific herpesviruses including drug-resistant strains. (a) Sequence homology for the crs of human CMV, rhesus CMV (RhCMV), and murine CMV (MCMV). Sequence homology and divergence are represented. […] NIH 3T3 mouse fibroblast cells were nucleofected with either 28 bp C-DOT^MCMY, or C-DOT^Scram, or mock nucleofected 24 hours prior to MCMV infection at MOI=0.1. 4 days post infection, virus titers were assayed by TCID50. […] (Upper) Fluorescent micrographs, 4-day post nucleofection, of Telo-RF cells nucleofected with either a 28 bp C-DOT^RhCMV, or a C-DOT^Scram, or mock nucleofected and then infected with RhCMV (RhCMV 68.1 GFP) at MOI=0.1. (Lower) Virus titers assayed by TCID-50 at 4 days post infection. […] MRC-5 cells were nucleofected with C-DOT^C or C-DOT^Scram then infected 24-hour later with either the parent CMV AD169 (control) or GCV^R or FOS^R strains (CMV GDGrK17, CMV GDGrP53, CMV 759rD100-1, CMV PFArD100). Virus titers were assayed by TCID-50 at 4 days post infection.

RhCMV 68.1 GFP = assay: RhCMV replication in Telo-RF cells (TCID-50); assay type: cell-based, rhesus CMV; conditions: MOI=0.1, 4 days post infection
Method: as §1

HSV-1 = assay: Cell-death pathway analysis in the context of HSV-1 infection; assay type: cell-based
From the text: (§2) FIG. 10 provides a cell-death pathway analysis (pharmacological inhibitors). The mechanism of C-DOT-induced cell death (in the context of the virus infection) was identified using three separate approaches: (i) RNAseq: to identify misregulated expression patterns and the cell-death pathways these group into (ii) Antibody staining: for specific cell-death pathway markers (iii) Pharmacological inhibitors: of cell-death pathways to test which mitigate C-DOT-induced death. […] C-DOT alone caused cell death in CMV and HSV-1.

CMV = assay: Cell-death pathway analysis in the context of CMV infection; assay type: cell-based
From the text: as §2

CMV (TB40E-IE86-YFP) = assay: Single-round viral titering of CMV in ARPE-19 cells (TCID50); assay type: cell-based
From the text: (§3) FIG. 7: Feedback circuit disruption interferes with viral replication even at high MOI and limits the evolution of resistance. (a) Flow cytometry of ARPE-19 cells nucleofected with the 28 bp dsDNA that titrates IE86 (C-DOT^C) or scrambled dsDNA sequence (C-DOT^Scram) and infected with a clinically derived CMV (TB40E) encoding an IE86-YFP (MOI=0.1) then analyzed at 2 days post infection (dpi). (b) Flow cytometry of ARPE-19 cells nucleofected with a 29 bp DNA to titrate IE175 (C-DOT^H) or scrambled dsDNA sequence (C-DOT^Scram) and infected with HSV-1 (17syn+strain) encoding an IE175-YFP (MOI=0.1) then analyzed at 2 dpi. (c) Single-round viral titering of CMV in the presence of 100 μM GCV, PBS, or 25 μM C-DOT^C (or C-DOT^Scram) at 4-days post infection under different initial MOIs. (d) Single-round viral titering of HSV-1 in presence of 100 μM ACV or 25 μM C-DOT^H (or C-DOT^Scram) at 4-days post infection under different HSV-1 MOIS. (e) Schematic of the continuous-culture experiment; ARPE-19 cells (+/−C-DOT) were infected with CMV or HSV-1 (0.1 MOI) and at 4-day post infection, supernatant was collected and was used to infect naïve ARPE-19 cells +/−C-DOT until day 60. (f) Continuous culture titers for CMV (TB40E-IE86-YFP) in the presence of C-DOT^C (red) or mock treatment (black). […]

HSV-1 (17syn+ IE175-YFP) = assay: Single-round viral titering of HSV-1 in ARPE-19 cells (TCID50); assay type: cell-based
From the text: as §3

[1] = system: CMV (TB40E-IE86-YFP or AD169); assay: C-DOT antiviral effect under high and low cGAS-STING expression (MRC-5, ARPE-19); assay type: cell-based; conditions: MRC-5 (high) and ARPE-19 (low cGAS-STING activity), 4 days post infection
Method: However, to verify that C-DOT activity is independent of cGAS-STING, C-DOTs were tested under conditions of high and low cGAS-STING expression and observed little difference in C-DOT antiviral effects and no effects for C-DOT^Scram in either setting (FIG. 15b).
Total RNA was extracted from cells and corresponding cDNA was quantified by qPCR using sequence specific primers for TLR9 (see Extended Data Table 1 for sequences). […] ARPE-19 (low cGAS-STING activity) and MRC-5 cells (high cGAS-STING activity) were nucleofected with C-DOTE or mock and infected with TB40E-IE86-YFP or AD169, respectively. Virus titers were assayed by TCID-50 at 4 days post infection. (c)C-DOT^C decreases CMV titers below detection by day 60 in the continuous culture setting. CMV titers from the continuous culture experiment followed out to day 60. ARPE-19 cells (+/−25 μM C-DOT) were infected with CMV (TB40E-IE86-YFP; MOI=0.1). (d) CMV and HSV-1 rapidly acquire resistance to approved antivirals (fomivirsen and acyclovir). Viral titers from the continuous culture experiment in the presence or absence of fomivirsen. Mock- or fomivirsen-nucleofected ARPE-19 cells were infected with CMV (TB40E-IE86-YFP; MOI=0.1); at 4 days post infection, supernatants were transferred to infect new naïve ARPE-19 cells (+/−fomivirsen) and transfers repeated every 4 days until day 44. […]

C-DOT^MCMV: 28 bp dsDNA with murine CMV crs; Fw G*ACAGACCA*GCGTCGG*TACCGTACACG*A (SEQ ID NO: 9) (sense dG*dAdCdAdGdAdCdCdA*dGdCdGdTdCdGdG*dTdAdCdCdGdTdAdCdAdCdG*dA; antisense TCGTGTACGGTACCGACGCTGGTCTGTC; antisense: DNA, backbone not given here)
effect on MCMV replication (MCMV): interferes with MCMV replication

C-DOT^RhCMV: 28 bp dsDNA with rhesus CMV crs; Fw G*ACAGATCGT*TTAGGGAAC*CGTACACG*A (SEQ ID NO: 8) (sense dG*dAdCdAdGdAdTdCdGdT*dTdTdAdGdGdGdAdAdC*dCdGdTdAdCdAdCdG*dA; antisense TCGTGTACGGTTCCCTAAACGATCTGTC; antisense: DNA, backbone not given here)
effect on RhCMV replication (RhCMV 68.1 GFP): downregulates RhCMV replication

C-DOT^Scram: scrambled dsDNA sequence, phosphorothioated, negative control; Fw A*TACCGCGTAA*CCAGAGGT*ATATAGGT*C (SEQ ID NO: 40) (sense ATACCGCGTAACCAGAGGTATATAGGTC; antisense GACCTATATACCTCTGGTTACGCGGTAT; phosphorothioate; (1)..(2) A Phosphorothioate bond is present between the nucleotides at positions 1 and 2; (11)..(12) A Phosphorothioate bond is present between the nucleotides at positions 11 and 12; (19)..(20) A Phosphorothioate bond is present between the nucleotides at positions 19 and 20; (27)..(28) A Phosphorothioate bond is present between the nucleotides at positions 27 and 28; (1)..(2) A Phosphorothioate bond is present between the nucleotides at positions 1 and 2.; (9)..(10) A Phosphorothioate bond is present between the nucleotides at positions 9 and 10.; (17)..(18) A …)
cell death (HSV-1): minimal cell death
cell death (CMV): minimal cell death
antiviral effects (CMV (TB40E-IE86-YFP)): did not exhibit antiviral effects
antiviral effects (HSV-1 (17syn+ IE175-YFP); HSV-1): did not exhibit antiviral effects
antiviral effects under high and low cGAS-STING expression [1]: no effects

Nc1nc2c(ncn2COCCO)c(=O)[nH]1 [ACV, acyclovir]
reduction in viral replication (HSV-1 (17syn+ IE175-YFP); HSV-1, MOI=2, 100 μM ACV or 25 μM C-DOT^H, 4 days post infection): 35-70 ×

Nc1nc(O)c2ncn(COC(CO)CO)c2n1 [GCV, ganciclovir]
reduction in viral replication (CMV (TB40E-IE86-YFP); MOI=2, 100 μM GCV or 25 μM C-DOT^C, 4 days post infection): 35-70 ×
